{
  "source": "patent US8193235B2",
  "about": "“Compositions and methods for establishing and maintaining stem cells in an undifferentiated state” (University of Kansas, priority 2009, dated 2012)",
  "key": {"Stat3−/− ES cells": {"tested_on": "Stat3−/− ES cells", "assay": "Stat3−/− ES cells in serum-free N2B27 medium", "assay_type": "cell-based, mouse", "procedure": "Stat3^−/− ES Cells. Passage 12 Stat3^−/− ES cells were maintained on N2B27 medium with 1 μM PD0325901 and 3 μM CHIR99021 and passaged every 3-4 days. For studies involving Gö6983, around 1-2×10^4 cells were plated on 6-well plates having N2B27 medium with or without 5 μM Gö6983 and analyzed for the expression of pluripotency markers."}, "GSK-3α or GSK-3β": {"tested_on": "GSK-3α or GSK-3β", "assay": "GSK3 phosphorylation in mESCs", "assay_type": "cell-based, mouse", "procedure": "E14 ES Cell Cultures. Cells were grown in ES-IMDM media (Lonza, Walkersville, Md.) in a feeder-free condition. ES-IMDM was supplemented with 15% serum, 10^5 U/100 ml of LIF (ESGRO, Millipore, Calif.) and 0.0124% monothioglycerol (MTG; Sigma Aldrich). Cells were grown for 3-5 days with change of medium every day. For inducing differentiation in monolayer culture and to determine the effect of Gö6983 in preventing differentiation, E14 cells were cultured on gelatin-coated plastics for 8 days without LIF. Details of experiments performed at clonal-density are described herein. To maintain E14 cells with Gö6983, serum supplemented ES-IMDM was used in the presence of 5 μM Gö6983 and was passed after every 3-5 days. For all assays involving elucidation of different signaling mechanism responsible for maintenance of pluripotency, cells from a ˜70% confluent ES culture plate were washed two times with 1× phosphate-buffered saline (PBS), trypsinized and plated on a 6-well tissue culture plate and treated with or without LIF or Gö6983 or different inhibitors for ˜10 hours followed by preparation of protein lysates and RNA. The PKCζ knocked-down E14 cells that were generated in this study were maintained in serum supplemented ES-IMDM on gelatin-coated plates in the absence of Gö6983 or LIF or any other inhibitor and passed after 3-5 days. […]"}, "[1]": {"tested_on": "canonical Wnt reporter (TOPFLASH reporter)", "assay": "TOPFLASH luciferase reporter assay", "assay_type": "cell-based, mouse", "conditions": "mESCs", "procedure": "TOPFLASH Luciferase Reporter Assay. […] were transfected with 0.5 μg of SUPER8XTOPFlash and 20 ng of phRL Renilla luciferase vectors per well using LIPOFECTAMINE (Invitrogen). Transfected cells were cultured with or without LIF, or Wnt3a-conditioned medium, or with Gö6983, and luciferase activity was measured after 48 hours of transfection using Dual-Luciferase Reporter Assay System (Promega)."}, "[2]": {"tested_on": "Oct4 and Nanog promoter regions", "assay": "DNA methylation analysis (bisulfite sequencing, MSP)", "assay_type": "cell-based, mouse", "conditions": "E14 cells, 5 days on collagen-IV", "excerpt": "DNA Methylation Analysis. One μg of genomic DNA was subjected to bisulfite treatment using CPGENOME Fast DNA Modification Kit (Chemicon Int.). For bisulfite sequencing, the modified DNA was amplified by nested polymerase chain reaction (PCR) using two forward (F) primers and one reverse (R) primer: Oct4 (F1, 5′-GTTGTTTTGTTTTGGTTTTGGATAT-3′, SEQ ID NO:57; F2, 5′-ATGGGTTGAAATATTGGGTTTATTTA-3′, SEQ ID N:58; and R, 5′-CCACCCTCTAACCTTAACCTCTAAC-3′, SEQ ID NO:59) and Nanog (F1, 5′-GAGGATGTTTTTTAAGTTTTTTTT-3′, SEQ ID NO:60; F2, 5′-AATGTTTATGGTGGATTTTGTAGGT-3′, SEQ ID NO:;61; and R, 5′-CCCACACTCATATCAATATAATAAC-3′, SEQ ID NO:62). The resulting PCR product was gel purified, subcloned into pGEM-T vector (Promega) and sequenced using M13R primer. Following primers were used for MSP: Oct4, (F) 5′-GGTTTTAGAAATAATTGGTATACGA-3′ (SEQ ID NO:63), and (R) 5′-CTATTAACACTACACCCTCTCGAC-3′ (SEQ ID NO:64); and Nanog, (F) 5′-ATTTGTGAGTATAAGGATTGATCGG-3′ (SEQ ID NO:65), and (R) 5′-TTTCTTTAAAATAAAATTTCACGTA-3′ (SEQ ID NO:66). PCR products were analyzed on agarose gel."}, "PKC μ": {"molecular_target": "PKC μ (Homo sapiens, UniProt Q15139)", "sequence (Q15139 whole entry)": "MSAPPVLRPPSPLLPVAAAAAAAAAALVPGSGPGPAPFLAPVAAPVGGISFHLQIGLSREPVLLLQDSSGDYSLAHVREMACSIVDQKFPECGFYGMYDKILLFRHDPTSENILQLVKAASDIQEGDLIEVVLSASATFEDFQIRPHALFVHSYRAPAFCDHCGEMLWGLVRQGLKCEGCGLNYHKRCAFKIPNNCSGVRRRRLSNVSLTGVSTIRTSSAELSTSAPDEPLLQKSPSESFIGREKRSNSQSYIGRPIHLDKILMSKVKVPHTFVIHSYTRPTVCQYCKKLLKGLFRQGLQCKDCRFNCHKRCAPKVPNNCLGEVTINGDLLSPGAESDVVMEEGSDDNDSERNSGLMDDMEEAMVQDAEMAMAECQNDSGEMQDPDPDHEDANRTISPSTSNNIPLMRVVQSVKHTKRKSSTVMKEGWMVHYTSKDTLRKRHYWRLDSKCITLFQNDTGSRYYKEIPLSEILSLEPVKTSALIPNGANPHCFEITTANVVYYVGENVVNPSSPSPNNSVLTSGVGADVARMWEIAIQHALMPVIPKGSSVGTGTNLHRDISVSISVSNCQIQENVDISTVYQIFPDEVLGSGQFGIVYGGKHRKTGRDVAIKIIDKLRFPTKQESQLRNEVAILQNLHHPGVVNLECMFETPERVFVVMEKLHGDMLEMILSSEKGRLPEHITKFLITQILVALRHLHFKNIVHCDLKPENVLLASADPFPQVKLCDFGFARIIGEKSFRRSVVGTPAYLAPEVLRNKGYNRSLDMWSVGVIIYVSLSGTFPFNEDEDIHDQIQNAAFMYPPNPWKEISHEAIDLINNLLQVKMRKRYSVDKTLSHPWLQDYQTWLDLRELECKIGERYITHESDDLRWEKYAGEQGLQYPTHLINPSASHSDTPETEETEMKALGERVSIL", "conditions": "higher concentrations; cited from earlier work"}},
  "data": [
    {"smiles": "COc1ccc2c(c1)c(C1=C(c3c[nH]c4ccccc34)C(=O)NC1=O)cn2CCCN(C)C", "note": "[Gö6983, 3-[1-[3-(dimethylamino)propyl]5-methoxy-1H-indol-3-yl]-4-(1H-indol-3-yl)-1H-pyrrole-2,5-dione]", "values": [
      {"measurement": "differentiation of Stat3−/− ES cells", "setting": "Stat3−/− ES cells", "result": "efficiently prevented differentiation"},
      {"measurement": "phosphorylation of GSK-3α or GSK-3β", "setting": "GSK-3α or GSK-3β", "result": "did not significantly change"},
      {"measurement": "TOPFLASH reporter activity", "setting": "[1]", "result": "did not induce"},
      {"measurement": "DNA methylation of promoter regions of Oct4 and Nanog", "setting": "[2]", "result": "remained largely unmethylated"},
      {"measurement": "concentration that inhibits isoform PKC μ", "setting": "PKC μ", "result": "> 20", "unit": "µM"}
    ]}
  ]
}
